Tests used:
[1] = system: primary rat hepatocytes; test: DCA-induced caspase-3/7 activity (ApoTox-Glo Triplex); assay type: cell-based; conditions: 50 and 100 μM DCA; pretreatment; FIG. 7B
Method: Primary rat hepatocytes were isolated from male rats (100-150 grams) by collagenase perfusion (as described by Solá S, et al., 2003, Journal of Biological Chemistry 278: 48831-48838)). Briefly, rats were anesthetized with phenobarbital sodium (100 mg/kg body weight) injected into the peritoneal cavity. After administration of heparin (200 units/kg body weight) in the tail vein, the animal's abdomen was opened and the portal vein exposed and cannulated. The liver was then perfused at 37° C. in situ with a calcium-free Hanks' Balanced Salt Solution (HBSS) for about 10 minutes, and then with 0.05% collagenase type IV in calcium-present HBSS for another 10 minutes. […] Cell viability was determined by trypan blue exclusion and was typically 80-85%. […]
The ApoTox-Glo™ Triplex Assay (Promega Corp., Madison, Wis., USA) was used to evaluate cell viability, cytotoxicity and caspase-3/7 activity, according to the manufacturer's protocol, using a GloMax+ Multi Detection System (Promega Corp.). General cell death was also evaluated using the lactate dehydrogenase (LDH) Cytotoxicity Detection Kit^PLUS (Roche Diagnostics GmbH, Mannheim, Germany), following the manufacturer's instructions. […]

[2] = system: primary rat hepatocytes; test: TGF-β1-induced apoptosis, percentage of apoptotic cells; assay type: cell-based; conditions: 1 nM TGF-β1 36 hours; 100 μM compound pre-treatment; FIG. 8B
Method: Primary rat hepatocytes were isolated from male rats (100-150 grams) by collagenase perfusion (as described by Solá S, et al., 2003, Journal of Biological Chemistry 278: 48831-48838)). Briefly, rats were anesthetized with phenobarbital sodium (100 mg/kg body weight) injected into the peritoneal cavity. After administration of heparin (200 units/kg body weight) in the tail vein, the animal's abdomen was opened and the portal vein exposed and cannulated. The liver was then perfused at 37° C. in situ with a calcium-free Hanks' Balanced Salt Solution (HBSS) for about 10 minutes, and then with 0.05% collagenase type IV in calcium-present HBSS for another 10 minutes. […] Cell viability was determined by trypan blue exclusion and was typically 80-85%. […] Fluorescence was visualized using an Axioskop fluorescence microscope (Carl Zeiss GmbH). Blue-fluorescent nuclei were scored blindly and categorized according to the condensation and staining characteristics of chromatin. […] Five random microscopic fields per sample containing approximately 150 nuclei were counted, and mean values expressed as the percentage of apoptotic nuclei. […] Results are expressed as means±SEM of at least three experiments. *p<0.01 from control; § p<0.05 and †p<0.01 from TGF-β1.

Row | Compound | inhibition of caspase activity [1] | reduction of the percentage of apoptotic cells [2]
1 | 7,8-[^2H]-3α,7α-dihydroxy-5β-cholan-24-oic acid/7-[^2H]-3α,7α-dihydroxy-5β-cholan-24-oic acid [Compound 5] | more effective than UDCA | ~40%
2 | C[C@H](CCC(=O)O)[C@H]1CC[C@H]2[C@@H]3[C@@H](O)C[C@@H]4C[C@H](O)CC[C@]4(C)[C@H]3CC[C@]12C [UDCA, Ursodeoxycholic acid, reference compound] | – | ~40%

Source: patent US10144758B2, “Deuterated bile acids” (Metselex, Inc., priority 2013, dated 2018)
